# Patent US20180155757A1, “IDENTIFICATION OF BACTERIA THAT ARE RESISTANT TO CARBAPENEMS BY MEMBRANE IMPERVIOUSNESS” (BIOMÉRIEUX, priority 2015, published 2018)
# Where two headings read alike, the source gives them in different places.
# Legend:
# Experiment in all cases: Etest MIC of indicator carbapenems on MH II agar without/with PMBN
# Type in all cases: cell-based
# E. cloacae 9402034 = E. cloacae 9402034 (membrane impermeability), Table 4a
# Protocol: (§1) The determinations of antibiotic MIC were carried out on solid culture media with the Etest® method. To do this, Etest® strips (bioMérieux, France) were used: • Etest® Imipenem IM 32, and • Etest® Ertapenem ETP 32, and also solid culture media, differing from one another by virtue of their non-inhibitory concentrations of PMBN.
# (§2) These solid culture media are prepared in Petri dishes (0=145 mm; V=50 ml) on a base of MH II Agar (Becton Dickinson®, United States), more or less supplemented with PMBN. The PMBN concentrations range from 0 up to concentrations equivalent to one fifth of the MIC of PMBN (⅕ MICPMBN).
# (§3) Using a swab and the Retro C80™ rota-plater (bioMérieux, France), the culture media were inoculated with the bacteria, originating from an inoculum of 0.5 McFarland, prepared in 0.85% NaCl solution from colonies subcultured the day before on MH II agar.
# (§4) The various Etest® strips are then deposited on the surface of the culture media. After 16 to 20 hours of incubation at 35° C., the MICS were read.
# (§5) To do this, imipenem and ertapenem were used as indicator carbapenems. Non-inhibitory concentrations of PMBN, equivalent to concentrations of one tenth ( 1/10), one eighth (⅛) and one fifth (⅕) of the MIC of PMBN, were applied.
# (§6) In the light of the MICPMBN values previously identified, very predominantly much higher than 300 μg/ml, the following standard concentrations were retained and applied to the bacterial strains to be tested: 50, 100, 150, 200 and 300 μg/ml.
# (§7) By way of indicator carbapenems according to the invention, in addition to imipenem (IM) and ertapenem (ETP), meropenem (MP) was also tested. Like the other two antibiotics, meropenem was used in the form of Etest® strips (Etest® Meropenem MP 32 from the company bioMérieux, France).
# (§8) The methods used to prepare the new culture media and to carry out the antibiotic-sensitivity tests are identical to those described above.
# E. aerogenes 9203076 = test system: E. aerogenes 9203076
# Protocol: as §1, §2, §3, §4, §5, §6, §7, §8
# E. aerogenes 9306071 = E. aerogenes 9306071 (membrane impermeability), Table 4a
# Protocol: as §1, §2, §3, §4, §5, §6, §7, §8
# E. coli 1204043 = test system: E. coli 1204043
# Protocol: as §1, §2, §3, §4, §5, §6, §7, §8
# K. pneumoniae 1002015 = settings: Klebsiella pneumoniae, 1002015, K. pneumoniae 1002015 (porin−), Table 4, read-out: MIC
# Protocol: as §1, §2, §3, §4, §5, §6, §7, §8
# E. aerogenes 1204048 = E. aerogenes 1204048 (membrane impermeability), Table 4a, in µg/mL
# Protocol: as §1, §2, §3, §4, §5, §6, §7, §8
# K. pneumoniae 1204034 = test system: K. pneumoniae 1204034
# Protocol: as §1, §2, §3, §4, §5, §6, §7, §8
# [1] = test system: E. aerogenes 1204050 (membrane impermeability); settings: in µg/mL
# Protocol: as §1, §2, §3, §4, §7, §8
# [2] = test system: K. pneumoniae 1204035 (membrane impermeability); settings: in µg/mL
# Protocol: as §1, §2, §3, §4, §7, §8
# [3] = test system: K. pneumoniae 1103183 (NDM producer)
# Protocol: as §1, §2, §3, §4, §7, §8
# E. coli SAB 108 (porin−) = settings: Escherichia coli
# Protocol: as §1, §2, §3, §4, §7, §8
# [4] = test system: Enterobacter aerogenes EA 27 (porin−); settings: Klebsiella aerogenes, E. aerogenes EA 27 (porin−), read-out: MIC
# Protocol: as §1, §2, §3, §4, §7, §8
# [5] = test system: K. pneumoniae KP 55 (porin−); settings: Klebsiella pneumoniae
# Protocol: as §1, §2, §3, §4, §7, §8
structure (smiles),measurement,setting,value
"C[C@@H](O)[C@H]1C(=O)N2C(C(=O)O)=C(S[C@@H]3CN[C@H](C(=O)N(C)C)C3)[C@H](C)[C@H]12 [MP, meropenem]",MIC,E. cloacae 9402034; [PMBN] 0,16 µg/mL
same,MIC,E. cloacae 9402034; [PMBN] 100,2 µg/mL
same,MIC,E. cloacae 9402034; [PMBN] 200,2 µg/mL
same,MIC,E. cloacae 9402034; [PMBN] 300,3 µg/mL
same,MIC,"E. aerogenes 9203076; E. aerogenes 9203076 (membrane impermeability), [PMBN] 0, Table 4a, in µg/mL",4
same,MIC,"E. aerogenes 9203076; E. aerogenes 9203076 (membrane impermeability), [PMBN] 100, Table 4a, in µg/mL",2
same,MIC,"E. aerogenes 9203076; E. aerogenes 9203076 (membrane impermeability), [PMBN] 200, Table 4a, in µg/mL",1.5
same,MIC,"E. aerogenes 9203076; E. aerogenes 9203076 (membrane impermeability), [PMBN] 300, Table 4a, in µg/mL",0.5-0.75
same,MIC,"E. aerogenes 9203076; Klebsiella aerogenes, 9203076, E. aerogenes 9203076 (porin−), [PMBN] 0, Table 4, read-out: MIC",4 µg/mL
same,MIC,"E. aerogenes 9203076; Klebsiella aerogenes, 9203076, E. aerogenes 9203076 (porin−), [PMBN] 150 μg/ml, Table 4, read-out: MIC",0.5 µg/mL
same,MIC,"E. aerogenes 9203076; Klebsiella aerogenes, 9203076, E. aerogenes 9203076 (porin−), [PMBN] 200 μg/ml, Table 4, read-out: MIC",0.5 µg/mL
same,MIC,E. aerogenes 9306071; [PMBN] 0,4 µg/mL
same,MIC,E. aerogenes 9306071; [PMBN] 100,1.5 µg/mL
same,MIC,E. aerogenes 9306071; [PMBN] 200,1.5 µg/mL
same,MIC,E. aerogenes 9306071; [PMBN] 300,0.5 µg/mL
same,MIC,"E. coli 1204043; E. coli 1204043 (membrane impermeability), [PMBN] 0, Table 4a, in µg/mL",4
same,MIC,"E. coli 1204043; E. coli 1204043 (membrane impermeability), [PMBN] 100, Table 4a, in µg/mL",0.75
same,MIC,"E. coli 1204043; E. coli 1204043 (membrane impermeability), [PMBN] 200, Table 4a, in µg/mL",0.38
same,MIC,"E. coli 1204043; E. coli 1204043 (membrane impermeability), [PMBN] 300, Table 4a, in µg/mL",0.19
same,MIC,"E. coli 1204043; Escherichia coli, 1204043, E. coli 1204043 (porin−), [PMBN] 0, Table 4, read-out: MIC",3 µg/mL
same,MIC,"E. coli 1204043; Escherichia coli, 1204043, E. coli 1204043 (porin−), [PMBN] 150 μg/ml, Table 4, read-out: MIC",0.064 µg/mL
same,MIC,"E. coli 1204043; Escherichia coli, 1204043, E. coli 1204043 (porin−), [PMBN] 200 μg/ml, Table 4, read-out: MIC",0.008 µg/mL
same,MIC,K. pneumoniae 1002015; [PMBN] 0,2 µg/mL
same,MIC,K. pneumoniae 1002015; [PMBN] 150 μg/ml,0.19 µg/mL
same,MIC,K. pneumoniae 1002015; [PMBN] 200 μg/ml,0.19 µg/mL
same,MIC,E. aerogenes 1204048; [PMBN] 0,>32
same,MIC,E. aerogenes 1204048; [PMBN] 100,1.5
same,MIC,E. aerogenes 1204048; [PMBN] 200,1
same,MIC,E. aerogenes 1204048; [PMBN] 300,0.5-1
same,MIC,"K. pneumoniae 1204034; K. pneumoniae 1204034 (membrane impermeability), [PMBN] 0, Table 4a",16 µg/mL
same,MIC,"K. pneumoniae 1204034; K. pneumoniae 1204034 (membrane impermeability), [PMBN] 100, Table 4a",1.5 µg/mL
same,MIC,"K. pneumoniae 1204034; K. pneumoniae 1204034 (membrane impermeability), [PMBN] 200, Table 4a",0.75 µg/mL
same,MIC,"K. pneumoniae 1204034; K. pneumoniae 1204034 (membrane impermeability), [PMBN] 300, Table 4a",0.38 µg/mL
same,MIC,"K. pneumoniae 1204034; Klebsiella pneumoniae, 1204034, K. pneumoniae 1204034 (porin−), [PMBN] 0, Table 4, read-out: MIC",12 µg/mL
same,MIC,"K. pneumoniae 1204034; Klebsiella pneumoniae, 1204034, K. pneumoniae 1204034 (porin−), [PMBN] 150 μg/ml, Table 4, read-out: MIC",0.5 µg/mL
same,MIC,"K. pneumoniae 1204034; Klebsiella pneumoniae, 1204034, K. pneumoniae 1204034 (porin−), [PMBN] 200 μg/ml, Table 4, read-out: MIC",0.25 µg/mL
same,MIC,"[1]; [PMBN] 0, Table 4a",>32
same,MIC,"[1]; [PMBN] 100, Table 4a",2-4
same,MIC,"[1]; [PMBN] 200, Table 4a",1.5-2
same,MIC,"[1]; [PMBN] 300, Table 4a",1
same,MIC,"[2]; [PMBN] 0, Table 4a",8-12
same,MIC,"[2]; [PMBN] 100, Table 4a",2
same,MIC,"[2]; [PMBN] 200, Table 4a",1.5
same,MIC,"[2]; [PMBN] 300, Table 4a",1.5
same,MIC,"[3]; [PMBN] 0, Table 4a",> 32 µg/mL
same,MIC,"[3]; [PMBN] 100, Table 4a",> 32 µg/mL
same,MIC,"[3]; [PMBN] 200, Table 4a",24 µg/mL
same,MIC,"[3]; [PMBN] 300, Table 4a",> 32 µg/mL
same,MIC,E. coli SAB 108 (porin−); [PMBN] 0,2 µg/mL
same,MIC,E. coli SAB 108 (porin−); [PMBN] 50 μg/ml,0.125 µg/mL
same,MIC,E. coli SAB 108 (porin−); [PMBN] 100 μg/ml,0.125 µg/mL
same,MIC,E. coli SAB 108 (porin−); [PMBN] 150 μg/ml,0.094 µg/mL
same,MIC,E. coli SAB 108 (porin−); [PMBN] 200 μg/ml,0.094 µg/mL
same,MIC,"[4]; [PMBN] 0, Table 4",4 µg/mL
same,MIC,[4]; [PMBN] 50 μg/ml,0.75 µg/mL
same,MIC,[4]; [PMBN] 100 μg/ml,0.5 µg/mL
same,MIC,[4]; [PMBN] 150 μg/ml,0.19 µg/mL
same,MIC,[4]; [PMBN] 200 μg/ml,0.094 µg/mL
same,MIC,[5]; [PMBN] 0,0.19 µg/mL
same,MIC,[5]; [PMBN] 50 μg/ml,0.125 µg/mL
same,MIC,[5]; [PMBN] 100 μg/ml,0.064 µg/mL
same,MIC,[5]; [PMBN] 150 μg/ml,0.064 µg/mL
same,MIC,[5]; [PMBN] 200 μg/ml,0.047 µg/mL
